Laboratory results as given in patent US4138554A, “7-[D-α-(4-Hydroxy-1,5-naphthyridine-3-carboxamido)-α-phenyl (and p-hydroxyphenyl)acetamido]-3-carbamoyloxymethyl-3-cephem-4-carboxylic acids” (priority 1977, dated 1979).
Converted amounts (≈) assume the structure as drawn. Where two headings read alike, the source gives them in different places.

Columns and labels:
Format in all cases: cell-based
K. pneumoniae = assay: MIC by serial two-fold agar dilution (Mueller-Hinton agar), K. pneumoniae; conditions: Klebsiella pneumoniae, K. pneumoniae, Table 1
Description: (§1) Minimum inhibitory concentrations (MIC) of BB-S520 were determined by serial two-fold agar dilution method using Steers' apparatus on Meuller-Hinton agar plate against 31 test organisms for the primary screening and also against 61 strains of Pseudomonas aeruginosa for the secondary evaluation. The results are shown in Table 1 and Table 2 along with those of BB-S514 and sulbenicillin.
(§2) Minimum inhibitory concentrations (MIC) of cephalosporins in the present study were determined by serial two-fold agar dilution method using Steers' apparatus on Mueller-Hinton agar plate against 31 test organisms for the primary screening and also against 61 strains of Pseudomonas aeruginosa for the secondary evaluation.

Klebsiella sp. = assay: MIC by serial two-fold agar dilution (Mueller-Hinton agar), Klebsiella sp.; conditions: Klebsiella sp., Table 1; read-out: MIC
Description: as §1, §2

E. cloacae = assay: MIC by serial two-fold agar dilution (Mueller-Hinton agar), E. cloacae; conditions: Enterobacter cloacae, Table 1
Description: as §1, §2

P. mirabilis = assay: MIC by serial two-fold agar dilution (Mueller-Hinton agar), P. mirabilis; conditions: Proteus mirabilis; P. mirabilis, Table 1; read-out: MIC
Description: as §1, §2

P. vulgaris = assay: MIC by serial two-fold agar dilution (Mueller-Hinton agar), P. vulgaris; conditions: Proteus vulgaris; P. vulgaris, Table 1; read-out: MIC
Description: as §1, §2

S. enteritidis = assay: MIC by serial two-fold agar dilution (Mueller-Hinton agar), S. enteritidis; conditions: Salmonella enterica; S. enteritidis, Table 1; read-out: MIC
Description: as §1, §2

S. marcescens = assay: MIC by serial two-fold agar dilution (Mueller-Hinton agar), S. marcescens; conditions: Serratia marcescens; S. marcescens, Table 1; read-out: MIC
Description: as §1, §2

P. aeruginosa = assay: MIC by serial two-fold agar dilution (Mueller-Hinton agar), P. aeruginosa, primary screening; conditions: Pseudomonas aeruginosa, Table 1, read-out: MIC
Description: as §1, §2

Pseudomonas aeruginosa = assay: MIC by agar dilution against 61 strains of Pseudomonas aeruginosa, secondary evaluation; conditions: for MIC: Pseudomonas aeruginosa, read-out: MIC
Description: as §1, §2

[1] = tested on: Gram-positive (6 strains); assay: Mean % relative activity (MIC) vs sulbenicillin, Gram-positive (6 strains); conditions: Gram-positive (6 strains), from geometric means of MICs in Table 1
Description: as §1, §2

[2] = tested on: Gram-negative (19 strains); assay: Mean % relative activity (MIC) vs sulbenicillin, Gram-negative (19 strains); conditions: Gram-negative (19 strains), from geometric means of MICs in Table 1
Description: as §1, §2

Question: For `CC(=O)OCC1=C(C(=O)O)N2C(=O)C(NC(=O)C(NC(=O)c3cnc4cccnc4c3O)c3ccccc3)C2SC1` (stereo not shown) [BB-S514], which MIC (K. pneumoniae) is on record?
Answer: 6.3 µg/mL (≈ 10.9 µM)

Question: And the MIC (Klebsiella sp.)?
Answer: 12.5 µg/mL (≈ 21.6 µM)

Question: What about the MIC (E. cloacae; E. cloacae (1st line)) of the same compound?
Answer: 25 µg/mL (≈ 43.3 µM)

Question: And the MIC (E. cloacae; E. cloacae (2nd line))?
Answer: 50 µg/mL (≈ 86.6 µM)

Question: What about the MIC (E. cloacae; E. cloacae (3rd line)) of the same compound?
Answer: 25 µg/mL (≈ 43.3 µM)

Question: What about the MIC (P. mirabilis) of the same compound?
Answer: 0.8 µg/mL (≈ 1.39 µM)

Question: And the MIC (P. vulgaris)?
Answer: 25 µg/mL (≈ 43.3 µM)

Question: And the MIC (S. enteritidis)?
Answer: 6.3 µg/mL (≈ 10.9 µM)

Question: And the MIC (S. marcescens)?
Answer: > 100 µg/mL

Question: And the MIC (P. aeruginosa; P. aeruginosa (1st line))?
Answer: 3.1 µg/mL (≈ 5.37 µM)

Question: And the MIC (P. aeruginosa; P. aeruginosa (2nd line))?
Answer: 3.1 µg/mL (≈ 5.37 µM)

Question: And the MIC (P. aeruginosa; P. aeruginosa (3rd line))?
Answer: 6.3 µg/mL (≈ 10.9 µM)

Question: What about the MIC (P. aeruginosa; P. aeruginosa (4th line)) of the same compound?
Answer: 25 µg/mL (≈ 43.3 µM)

Question: What about the MIC (P. aeruginosa; P. aeruginosa (5th line)) of the same compound?
Answer: 6.3 µg/mL (≈ 10.9 µM)

Question: And the MIC (P. aeruginosa; P. aeruginosa (6th line))?
Answer: 3.1 µg/mL (≈ 5.37 µM)

Question: And the “Mean % Relative Activity (Sulbenicillin = 100%)” value (shortened to “Mean % Relative Activity”) (Pseudomonas aeruginosa; Ps. aeruginosa (61 strains), from geometric means of MICs in Table 2)?
Answer: 480%

Question: And the MIC (Pseudomonas aeruginosa; BBRI Pa-No. 1, D15, Table 2)?
Answer: 6.3 µg/mL (≈ 10.9 µM)

Question: And the MIC (Pseudomonas aeruginosa; BBRI Pa-No. 2, VA, Table 2)?
Answer: 6.3 µg/mL (≈ 10.9 µM)

Question: What about the MIC (Pseudomonas aeruginosa; BBRI Pa-No. 3, 1449VA, Table 2) of the same compound?
Answer: 3.1 µg/mL (≈ 5.37 µM)

Question: And the MIC (Pseudomonas aeruginosa; BBRI Pa-No. 4, H9 D113, Table 2)?
Answer: 12.5 µg/mL (≈ 21.6 µM)

Question: What about the MIC (Pseudomonas aeruginosa; BBRI Pa-No. 5, M4865KC, Table 2) of the same compound?
Answer: 6.3 µg/mL (≈ 10.9 µM)

Question: And the MIC (Pseudomonas aeruginosa; BBRI Pa-No. 6, No. 5, Table 2)?
Answer: 25 µg/mL (≈ 43.3 µM)

Question: And the MIC (Pseudomonas aeruginosa; BBRI Pa-No. 7, Table 2)?
Answer: 12.5 µg/mL (≈ 21.6 µM)

Question: What about the MIC (Pseudomonas aeruginosa; BBRI Pa-No. 8, Table 2) of the same compound?
Answer: 6.3 µg/mL (≈ 10.9 µM)

Question: And the MIC (Pseudomonas aeruginosa; BBRI Pa-No. 9, Yale, Table 2)?
Answer: 6.3 µg/mL (≈ 10.9 µM)

Question: And the MIC (Pseudomonas aeruginosa; BBRI Pa-No. 10, Table 2)?
Answer: 50 µg/mL (≈ 86.6 µM)

Question: What about the MIC (Pseudomonas aeruginosa; BBRI Pa-No. 11, Table 2) of the same compound?
Answer: 6.3 µg/mL (≈ 10.9 µM)

Question: What about the MIC (Pseudomonas aeruginosa; BBRI Pa-No. 12, Table 2) of the same compound?
Answer: 6.3 µg/mL (≈ 10.9 µM)

Question: And the MIC (Pseudomonas aeruginosa; BBRI Pa-No. 14, Table 2)?
Answer: 6.3 µg/mL (≈ 10.9 µM)

Question: And the MIC (Pseudomonas aeruginosa; BBRI Pa-No. 15, Table 2)?
Answer: 12.5 µg/mL (≈ 21.6 µM)

Question: What about the MIC (Pseudomonas aeruginosa; BBRI Pa-No. 16, No. 130, Table 2) of the same compound?
Answer: 1.6 µg/mL (≈ 2.77 µM)

Question: What about the MIC (Pseudomonas aeruginosa; BBRI Pa-No. 17, H6 D114, Table 2) of the same compound?
Answer: 3.1 µg/mL (≈ 5.37 µM)

Question: And the MIC (Pseudomonas aeruginosa; BBRI Pa-No. 18, H8 D121, Table 2)?
Answer: 6.3 µg/mL (≈ 10.9 µM)

Question: And the MIC (Pseudomonas aeruginosa; BBRI Pa-No. 19, Table 2)?
Answer: 3.1 µg/mL (≈ 5.37 µM)

Question: What about the MIC (Pseudomonas aeruginosa; BBRI Pa-No. 20, Table 2) of the same compound?
Answer: 6.3 µg/mL (≈ 10.9 µM)

Question: And the MIC (Pseudomonas aeruginosa; BBRI Pa-No. 21, Table 2)?
Answer: 6.3 µg/mL (≈ 10.9 µM)

Question: And the MIC (Pseudomonas aeruginosa; BBRI Pa-No. 23, Table 2)?
Answer: 6.3 µg/mL (≈ 10.9 µM)

Question: What about the MIC (Pseudomonas aeruginosa; BBRI Pa-No. 24, Table 2) of the same compound?
Answer: 50 µg/mL (≈ 86.6 µM)

Question: What about the MIC (Pseudomonas aeruginosa; BBRI Pa-No. 25, Table 2) of the same compound?
Answer: 1.6 µg/mL (≈ 2.77 µM)

Question: What about the MIC (Pseudomonas aeruginosa; BBRI Pa-No. 26, Ps32, Table 2) of the same compound?
Answer: 3.1 µg/mL (≈ 5.37 µM)

Question: And the MIC (Pseudomonas aeruginosa; BBRI Pa-No. 28, CPH10527/72, Table 2)?
Answer: 6.3 µg/mL (≈ 10.9 µM)

Question: What about the MIC (Pseudomonas aeruginosa; BBRI Pa-No. 29, D122, Table 2) of the same compound?
Answer: 3.1 µg/mL (≈ 5.37 µM)

Question: What about the MIC (Pseudomonas aeruginosa; BBRI Pa-No. 30, Table 2) of the same compound?
Answer: 6.3 µg/mL (≈ 10.9 µM)

Question: What about the MIC (Pseudomonas aeruginosa; BBRI Pa-No. 31, Table 2) of the same compound?
Answer: 1.6 µg/mL (≈ 2.77 µM)

Question: What about the MIC (Pseudomonas aeruginosa; BBRI Pa-No. 32, Table 2) of the same compound?
Answer: 6.3 µg/mL (≈ 10.9 µM)

Question: What about the MIC (Pseudomonas aeruginosa; BBRI Pa-No. 33, Table 2) of the same compound?
Answer: 25 µg/mL (≈ 43.3 µM)

Question: What about the MIC (Pseudomonas aeruginosa; BBRI Pa-No. 34, Table 2) of the same compound?
Answer: 6.3 µg/mL (≈ 10.9 µM)

Question: What about the MIC (Pseudomonas aeruginosa; BBRI Pa-No. 35, Table 2) of the same compound?
Answer: 25 µg/mL (≈ 43.3 µM)

Question: What about the MIC (Pseudomonas aeruginosa; BBRI Pa-No. 36, Table 2) of the same compound?
Answer: 0.4 µg/mL (≈ 0.693 µM)

Question: And the MIC (Pseudomonas aeruginosa; BBRI Pa-No. 37, Table 2)?
Answer: 6.3 µg/mL (≈ 10.9 µM)

Question: And the MIC (Pseudomonas aeruginosa; BBRI Pa-No. 38, Table 2)?
Answer: 12.5 µg/mL (≈ 21.6 µM)

Question: And the MIC (Pseudomonas aeruginosa; BBRI Pa-No. 39, Table 2)?
Answer: 3.1 µg/mL (≈ 5.37 µM)

Question: What about the MIC (Pseudomonas aeruginosa; BBRI Pa-No. 41, Table 2) of the same compound?
Answer: 6.3 µg/mL (≈ 10.9 µM)

Question: And the MIC (Pseudomonas aeruginosa; BBRI Pa-No. 42, Table 2)?
Answer: 12.5 µg/mL (≈ 21.6 µM)

Question: What about the MIC (Pseudomonas aeruginosa; BBRI Pa-No. 43, Table 2) of the same compound?
Answer: 6.3 µg/mL (≈ 10.9 µM)

Question: What about the MIC (Pseudomonas aeruginosa; BBRI Pa-No. 44, Table 2) of the same compound?
Answer: 6.3 µg/mL (≈ 10.9 µM)

Question: And the MIC (Pseudomonas aeruginosa; BBRI Pa-No. 51, Table 2)?
Answer: 6.3 µg/mL (≈ 10.9 µM)

Question: And the MIC (Pseudomonas aeruginosa; BBRI Pa-No. 52, Table 2)?
Answer: 6.3 µg/mL (≈ 10.9 µM)

Question: What about the MIC (Pseudomonas aeruginosa; BBRI Pa-No. 53, Table 2) of the same compound?
Answer: 6.3 µg/mL (≈ 10.9 µM)

Question: What about the MIC (Pseudomonas aeruginosa; BBRI Pa-No. 54, Table 2) of the same compound?
Answer: 6.3 µg/mL (≈ 10.9 µM)

Question: What about the MIC (Pseudomonas aeruginosa; BBRI Pa-No. 55, Table 2) of the same compound?
Answer: 6.3 µg/mL (≈ 10.9 µM)

Question: And the MIC (Pseudomonas aeruginosa; BBRI Pa-No. 56, Table 2)?
Answer: 6.3 µg/mL (≈ 10.9 µM)

Question: And the MIC (Pseudomonas aeruginosa; BBRI Pa-No. 57, Table 2)?
Answer: 3.1 µg/mL (≈ 5.37 µM)

Question: And the MIC (Pseudomonas aeruginosa; BBRI Pa-No. 58, Table 2)?
Answer: 12.5 µg/mL (≈ 21.6 µM)

Question: What about the MIC (Pseudomonas aeruginosa; BBRI Pa-No. 59, Table 2) of the same compound?
Answer: 6.3 µg/mL (≈ 10.9 µM)

Question: What about the MIC (Pseudomonas aeruginosa; BBRI Pa-No. 60, Table 2) of the same compound?
Answer: 3.1 µg/mL (≈ 5.37 µM)

Question: And the MIC (Pseudomonas aeruginosa; BBRI Pa-No. 61, Table 2)?
Answer: 6.3 µg/mL (≈ 10.9 µM)

Question: And the MIC (Pseudomonas aeruginosa; BBRI Pa-No. 62, Table 2)?
Answer: 12.5 µg/mL (≈ 21.6 µM)

Question: And the MIC (Pseudomonas aeruginosa; BBRI Pa-No. 64, Table 2)?
Answer: 6.3 µg/mL (≈ 10.9 µM)

Question: What about the MIC (Pseudomonas aeruginosa; BBRI Pa-No. 65, Table 2) of the same compound?
Answer: 3.1 µg/mL (≈ 5.37 µM)

Question: What about the MIC (Pseudomonas aeruginosa; BBRI Pa-No. 66, Table 2) of the same compound?
Answer: 3.1 µg/mL (≈ 5.37 µM)

Question: What about the MIC (Pseudomonas aeruginosa; BBRI Pa-No. 67, Table 2) of the same compound?
Answer: 12.5 µg/mL (≈ 21.6 µM)

Question: And the MIC (Pseudomonas aeruginosa; BBRI Pa-No. 68, Table 2)?
Answer: 12.5 µg/mL (≈ 21.6 µM)

Question: What about the MIC (Pseudomonas aeruginosa; BBRI Pa-No. 69, Table 2) of the same compound?
Answer: 25 µg/mL (≈ 43.3 µM)

Question: And the MIC (Pseudomonas aeruginosa; BBRI Pa-No. 70, K-Ps102 (CR-102), Table 2)?
Answer: 6.3 µg/mL (≈ 10.9 µM)

Question: What about the MIC (Pseudomonas aeruginosa; GN315, BBRI Pa-No. 27, GN315, Table 2) of the same compound?
Answer: 6.3 µg/mL (≈ 10.9 µM)

Question: And the MIC (Pseudomonas aeruginosa; GN4925, BBRI Pa-No. 45, GN4925, Table 2)?
Answer: 12.5 µg/mL (≈ 21.6 µM)

Question: What about the “Mean % Relative Activity” value [1] of the same compound?
Answer: 71%

Question: What about the “Mean % Relative Activity” value [2] of the same compound?
Answer: 96%
